Reference: patent US20110223149A1, “PEPTIDOMIMETIC MACROCYCLES” (AILERON THERAPEUTICS, INC., priority 2009, published 2011)
Where a SMILES comes first, the peptide text is derived from it. Bridges are numbered along the chain shown (N, C = ends). [ ]: non-standard residue; d: D form. S5 = C=CCCC[C@](C)(N)C(=O)O

Key:
Cathepsin D = Cathepsin D (Homo sapiens, UniProt P07339); assay type: in vitro ADME; conditions: pH 4.4
Protocol: For identification of Cathepsin B, D, and L metabolism, parent cross-linked peptide and positive control linear peptide (4 mM each in DMSO) was separately aliquoted (5 μL) to 1 mL volumes of 67 mM ammonium acetate solutions buffered either to pH 5.4 (cat B, L) and add 10 mM DTT, or to pH 4.4 (cat D) and add 0.117M KCl. Single enzyme working solution (10 μg/mL) was then added (40 μL) to each peptide solution (20 μM) to yield initial weight ratio (%) of 1:20 for each enzyme and peptide pair. Each mixture was placed in a 38-40° C. oven for incubation times of 30 and 60 min. At each time point, the reaction was stopped by addition of 500 μL of 48:48:2 v/v(%) hexafluoro-2-propanol/acetonitrile/TFA. A biphasic mixture formed after mixing and the bottom layer liquid was diluted (1:10) into acetonitrile: water and subsequently injected in duplicate for gradient LC/Ion Mobility TOF-MS analyses.
Ion mobility-MS and MS-MS analysis and peptide sequencing were performed on a Waters (Milford, Mass.) Synapt high-resolution ion-mobility-time-of flight mass spectrometer. Samples were prepared by dilution of the unpurified cross-linked peptide proteolysis product samples 10-fold into 1:1 acetonitrile-water containing 0.1% formic acid. LC-MS analyses were performed by reverse-phase gradient elution with 0.1% formic acid and 0.1% formic acid in acetonitrile as eluants at 500 μL/min. […]

Bcl-xL = Bcl-xL (Homo sapiens, UniProt Q07817); experiment: Protein-ligand binding experiment by SEC-LC-MS; conditions: 1 μM SP-4 and 5 μM Bcl-xL, 60 min at room temperature
Protocol: Protein-ligand binding experiments for Bcl-xL. Simple protein-ligand binding experiments were conducted using the following representative procedure outlined for a simple system-wide control experiment using 1 μM SP-4 and 5 μM Bcl-xL. A 1 μL, DMSO aliquot of a 40 μM stock solution of SP-4 is dissolved in 19 μL of PBS (Phosphate-buffered saline: 50 mM, pH 7.5 Phosphate buffer containing 150 mM NaCl). The resulting solution is mixed by repeated pipetting and clarified by centrifugation at 10 000 g for 10 min. To a 4 μL, aliquot of the resulting supernatant is added 4 μL, of 10 μM BCL-xL in PBS. Each 8.0 μL experimental sample thus contains 40 pmol (1.5 μg) of protein at 5.0 μM concentration in PBS plus 1 μM SP-4 and 2.5% DMSO. Duplicate samples thus prepared for each concentration point are incubated for 60 min at room temperature, and then chilled to 4° C. prior to size-exclusion chromatography-LC-MS analysis of 5.0 μL injections. Samples containing a target protein, protein-ligand complexes, and unbound compounds are injected onto an SEC column, where the complexes are separated from non-binding component by a rapid SEC step. The SEC column eluate is monitored using UV detectors to confirm that the early-eluting protein fraction, which elutes in the void volume of the SEC column, is well resolved from unbound components that are retained on the column. […]

Chain of Bcl-xL (Q07817 whole entry, species assumed): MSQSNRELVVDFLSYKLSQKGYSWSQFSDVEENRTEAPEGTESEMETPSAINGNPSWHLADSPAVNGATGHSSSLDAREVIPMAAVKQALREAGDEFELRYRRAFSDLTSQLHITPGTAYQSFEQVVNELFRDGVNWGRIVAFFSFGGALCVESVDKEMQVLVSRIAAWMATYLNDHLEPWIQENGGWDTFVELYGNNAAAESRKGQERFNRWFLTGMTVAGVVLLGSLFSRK
Chain of Cathepsin D (P07339 65-412, species assumed): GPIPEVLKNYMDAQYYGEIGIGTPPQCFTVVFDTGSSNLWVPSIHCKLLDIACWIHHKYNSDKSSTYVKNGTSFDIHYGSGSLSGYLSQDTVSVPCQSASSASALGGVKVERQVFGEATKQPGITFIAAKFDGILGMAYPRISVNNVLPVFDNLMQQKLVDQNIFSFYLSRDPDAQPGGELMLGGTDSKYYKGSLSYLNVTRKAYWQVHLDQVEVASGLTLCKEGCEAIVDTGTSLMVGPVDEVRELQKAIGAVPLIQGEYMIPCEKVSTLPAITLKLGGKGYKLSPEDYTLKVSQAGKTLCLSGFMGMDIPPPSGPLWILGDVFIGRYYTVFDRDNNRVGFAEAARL

cleavage site by cathepsin-D (proteolysis products) (Cathepsin D)	detection of protein-ligand complex with Bcl-xL (Bcl-xL)	Molecule
at F—Y residues		CC[C@H](C)[C@H](NC(=O)[C@H](Cc1c[nH]c2ccccc12)NC(=O)[C@H](CCCNC(=N)N)NC(C)=O)C(=O)N[C@@H](C)C(=O)N[C@@H](CCC(N)=O)C(=O)N[C@@H](C)C(=O)N[C@@H](CC(C)C)C(=O)N[C@@H](CCCNC(=N)N)C(=O)N[C@@]1(C)CCC/C=C\CCC[C@@](C)(C(=O)N[C@@H](Cc2ccccc2)C(=O)N[C@@H](CC(N)=O)C(=O)N[C@@H](C)C(=O)N[C@@H](Cc2ccccc2)C(=O)N[C@@H](Cc2ccc(O)cc2)C(=O)N[C@@H](C)C(=O)N[C@@H](CCCNC(=N)N)C(=O)N[C@@H](CCCNC(=N)N)C(N)=O)NC(=O)[C@H](CC(=O)O)NC(=O)CNC(=O)[C@H]([C@@H](C)CC)NC1=O [SP-1, Ac-RWIAQALR$IGD$FNAFYARR-NH2] (Ac-RWIAQALR[S5]IGD[S5]FNAFYARR-NH2; staple (Z) 9-13)
	detection of the protein-ligand complex	Ac-IWIAQALR$IGD$FNAYYARR-NH2 [SP-4]
